Assay [1] concerns non-replicating cultures of M. tuberculosis H37Rv transformed with lux ABCDE. In words: microbe, parasite or virus in culture. The class given is cell-based, Mycobacterium tuberculosis. As to conditions: for MIC90 LORA/MABA: ratio of LORA MIC90 to MABA MIC90. (Alamar Blue is a resazurin reagent that responds to reducing activity.)
For assay [2], the system named is M. tuberculosis transformed with luxABCDE. In words: microbe, parasite or virus in culture. To be noted: for MBC: Mycobacterium tuberculosis, 168 h, ≥99% reduction in luminescence, read-out: MBC99 Day 7 (Lux Assay) MBC. The class given is cell-based, Mycobacterium tuberculosis.
[3] abbreviates: Mycobacterium tuberculosis, H37RV, […], ≥90% reduction in luminescence, read-out: MIC90 LORA.

With `CO[C@H]1/C=C/O[C@@]2(C)Oc3c(C)c(O)c4c(=O)c(c5oc6cc(N7CCN(C(=O)c8ccc9occc9c8)CC7)cc(C)c6nc-5c4c3C2=O)NC(=O)/C(C)=C\C=C\[C@H](C)[C@H](O)[C@@H](C)[C@@H](O)[C@@H](C)[C@H](OC(C)=O)[C@@H]1C` [Compound 29c, (7S,9E,11S,12R,13S,14R,15R,16R,17S,18S,19E,21Z)-30-[4-(1-Benzofuran-5-carbonyl)piperazin-1-yl]-2,15,17-trihydroxy-11-methoxy-3,7,12,14,16,18,22,32-octamethyl-6,23,37-trioxo-8,27,38-trioxa-24,34-diazahexacyclo[23.11.1.1^4,7.0^5,36.0^26,35.0^28,33]octatriaconta-(36)2,4,9,19,21,25,28,30,32,34-undecaen-13-yl acetate], in assay [1], the “MIC90 LORA Rel to RMP” value turned out to be 0.05 and the “MIC90 LORA/MABA” value was 2.0. Moreover, the MIC90 in assay [1] (setting [3]) was found to be 0.0096 µM. Moreover, in assay [2], the “MBC99 Day 7 (Lux Assay) MBC Rel to RMP” value worked out at 0.10 and the MBC is 0.048 µM.

With `CO[C@H]1/C=C/O[C@@]2(C)Oc3c(C)c(O)c4c(=O)c(c5oc6cc(N7CCC(C(=O)O)CC7)cc(OCc7ccc(CN8CCN(C)CC8)cc7)c6nc-5c4c3C2=O)NC(=O)/C(C)=C\C=C\[C@H](C)[C@H](O)[C@@H](C)[C@@H](O)[C@@H](C)[C@H](OC(C)=O)[C@@H]1C` [Compound 17q, 1-[(7S,9E,11S,12R,13S,14R,15R,16R,17S,18S,19E,21Z)-13-(acetyloxy)-2,15,17-trihydroxy-11-methoxy-3,7,12,14,16,18,22-heptamethyl-32-({4-[(4-methylpiperazin-1-yl)methyl]phenyl}methoxy)-6,23,37-trioxo-8,27,38-trioxa-24,34-diazahexacyclo-[23.11.1.1^4,7.0^5,36.0^26,35.0^28,33]-octatriaconta-1,3,5(36)9,19,21,25,28,30,32,34-undecaen-30-yl]piperidine-4-carboxylic acid], the MIC90 in assay [1] (setting [3]) was over 0.02 µM. Also, the MBC in assay [2] was over 0.1 µM.

Consider `CO[C@H]1/C=C/O[C@@]2(C)Oc3c(C)c(O)c4c(=O)c(c5oc6cc(N7CCN(CC(C)C)CC7)cc(OCc7cccc(CN8CCN(C(=O)Cn9ccnc9)CC8)c7)c6nc-5c4c3C2=O)NC(=O)/C(C)=C\C=C\[C@H](C)[C@H](O)[C@@H](C)[C@@H](O)[C@@H](C)[C@H](OC(C)=O)[C@@H]1C` [Compound 12c, (7S,9E,11S,12R,13S,14R,15R,16R,17S,18S,19E,21Z)-2,15,17-Trihydroxy-32-{[3-({4-[2-(1H-imidazol-1-yl)acetyl]piperazin-1-yl}methyl)phenyl]methoxy}-11-methoxy-3,7,12,14,16,18,22-heptamethyl-30-[4-(2-methylpropyl)piperazin-1-yl]-6,23,37-trioxo-8,27,38-trioxa-24,34-diazahexacyclo[23.11.1.1^4,7.0^5,36.0^26,35.0^28,33]octatriaconta-1(36)2,4,9,19,21,25,28,30,32,34-undecaen-13-yl acetate], for which the “MIC90 LORA Rel to RMP” value in assay [1] was determined as 0.11. Further, in assay [1] (setting [3]), the MIC was under 0.016 µM. For the same compound, in assay [2], the “MBC99 Day 7 (Lux Assay) MBC Rel to RMP” value is recorded as 0.08 and the MBC came to 0.037 µM.

Consider `CO[C@H]1/C=C/O[C@@]2(C)Oc3c(C)c(O)c4c(=O)c(c5oc6cc(N7CCCC(C(=O)Nc8ccc(Cl)cc8)C7)cc(C)c6nc-5c4c3C2=O)NC(=O)/C(C)=C\C=C\[C@H](C)[C@H](O)[C@@H](C)[C@@H](O)[C@@H](C)[C@H](OC(C)=O)[C@@H]1C` (stereo partly drawn) [Compound 28, (7S,9E,11S,12R,13S,14R,15R,16R,17S,1S,19E,21Z)-30-{3-[(4-Chlorophenyl)carbamoyl]piperidin-1-yl}-2,15,17-trihydroxy-11-methoxy-3,7,12,14,16,18,22,32-octamethyl-6,23,37-trioxo-8,27,38-trioxa-24,34-diazahexacyclo[23.11.1.1^4,7.0^5,36.0^26,35.0^28,33]octatriaconta-1(36)2,4,9,19,21,25,28,30,32,34-undecaen-13-yl acetate], for which, in assay [1], the “MIC90 LORA Rel to RMP” value is 0.04 and the “MIC90 LORA/MABA” value was found to be 2.1. Further, the MIC90 in assay [1] (setting [3]) stood at 0.0092 µM. In assay [2], the “MBC99 Day 7 (Lux Assay) MBC Rel to RMP” value was found to be 0.05 and the MBC was determined as 0.025 µM.
